Measurements published in the supplement of paper PMC11451515.

System: P12-Ichikawa
Experiment: cell viability relative to DMSO control; higher = less cytotoxic
Conditions: 48 h
Outline: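 Three leukemia lines were tested: NOMO1 and SEM at 500 cells/well and P12-Ichikawa at 1000 cells/well. Each was adapted for at least four passages in each medium and seeded in 5 μl in 1536-well plates, and library compounds in DMSO were pin-dosed from 47 μM to 0.79 nM in 11 threefold steps. After 48 h at 37°C, CellTiter-Glo One luminescence was read. Viability is a percentage relative to DMSO wells on each plate, with cell-free wells as background.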

[1] = HPLM + 10% dialyzed FBS, 0.000781 µM
[2] = HPLM + 10% dialyzed FBS, 0.00234 µM
[3] = HPLM + 10% dialyzed FBS, 0.00702 µM
[4] = HPLM + 10% dialyzed FBS, 0.0211 µM
[5] = HPLM + 10% dialyzed FBS, 0.0632 µM
[6] = HPLM + 10% dialyzed FBS, 0.19 µM
[7] = HPLM + 10% dialyzed FBS, 0.569 µM
[8] = HPLM + 10% dialyzed FBS, 1.71 µM
[9] = HPLM + 10% dialyzed FBS, 5.12 µM
[10] = HPLM + 10% dialyzed FBS, 15.4 µM
[11] = HPLM + 10% dialyzed FBS, 46.1 µM
[12] = RPMI 5 mM glucose + 10% FBS, 0.000781 µM
[13] = RPMI 5 mM glucose + 10% FBS, 0.00234 µM
[14] = RPMI 5 mM glucose + 10% FBS, 0.00702 µM
[15] = RPMI 5 mM glucose + 10% FBS, 0.0211 µM
[16] = RPMI 5 mM glucose + 10% FBS, 0.0632 µM
[17] = RPMI 5 mM glucose + 10% FBS, 0.19 µM
[18] = RPMI 5 mM glucose + 10% FBS, 0.569 µM
[19] = RPMI 5 mM glucose + 10% FBS, 1.71 µM
[20] = RPMI 5 mM glucose + 10% FBS, 5.12 µM
[21] = RPMI 5 mM glucose + 10% FBS, 15.4 µM
[22] = RPMI 5 mM glucose + 10% FBS, 46.1 µM
[23] = RPMI 5 mM glucose + 10% dialyzed FBS, 0.000781 µM
[24] = RPMI 5 mM glucose + 10% dialyzed FBS, 0.00234 µM
[25] = RPMI 5 mM glucose + 10% dialyzed FBS, 0.00702 µM
[26] = RPMI 5 mM glucose + 10% dialyzed FBS, 0.0211 µM
[27] = RPMI 5 mM glucose + 10% dialyzed FBS, 0.0632 µM
[28] = RPMI 5 mM glucose + 10% dialyzed FBS, 0.19 µM
[29] = RPMI 5 mM glucose + 10% dialyzed FBS, 0.569 µM
[30] = RPMI 5 mM glucose + 10% dialyzed FBS, 1.71 µM
[31] = RPMI 5 mM glucose + 10% dialyzed FBS, 5.12 µM
[32] = RPMI 5 mM glucose + 10% dialyzed FBS, 15.4 µM
[33] = RPMI 5 mM glucose + 10% dialyzed FBS, 46.1 µM

Row | Compound | cell viability [1] | cell viability [2] | cell viability [3] | cell viability [4] | cell viability [5] | cell viability [6] | cell viability [7] | cell viability [8] | cell viability [9] | cell viability [10] | cell viability [11] | cell viability [12] | cell viability [13] | cell viability [14] | cell viability [15] | cell viability [16] | cell viability [17] | cell viability [18] | cell viability [19] | cell viability [20] | cell viability [21] | cell viability [22] | cell viability [23] | cell viability [24] | cell viability [25] | cell viability [26] | cell viability [27] | cell viability [28] | cell viability [29] | cell viability [30] | cell viability [31] | cell viability [32] | cell viability [33]
1 | C[C@@H]1O[C@@H](O[C@H]2C[C@@H](O)[C@]3(CO)[C@H]4[C@H](O)C[C@]5(C)[C@@H](C6=CC(=O)OC6)CC[C@]5(O)[C@@H]4CC[C@]3(O)C2)[C@H](O)[C@H](O)[C@H]1O | 98.5% | 96.7% | 97.5% | 85.2% | 32.9% | 11.5% | 10.7% | 12.3% | 12.7% | 12.9% | 9.88% | 92.2% | 105% | 102% | 94.7% | 80% | 33.6% | 9.32% | 8.91% | 6.97% | 6.93% | 5.78% | 98.8% | 101% | 98.7% | 88.7% | 56.4% | 17.6% | 9.86% | 8.22% | 6.53% | 5.46% | 4.89%
2 | O=C1\C=C/C=C2/[C@H]3CNC[C@H](C3)CN12 | 108% | 109% | 115% | 109% | 122% | 122% | 125% | 123% | 116% | 97.5% | 58.3% | 116% | 111% | 120% | 129% | 122% | 125% | 124% | 132% | 113% | 112% | 54.8% | 111% | 109% | 110% | 108% | 121% | 120% | 132% | 126% | 118% | 99.9% | 67.7%
3 | C[N]1C=C(C2=CC=CC=C12)\C3=C(\C(=O)NC3=O)C4=C[N](C5CCN(CC5)CC6=NC=CC=C6)C7=C4C=CC=C7 | 110% | 116% | 115% | 119% | 118% | 123% | 120% | 118% | 118% | 120% | 117% | 118% | 126% | 119% | 115% | 118% | 123% | 127% | 124% | 116% | 116% | 125% | – | – | – | – | – | – | – | – | – | – | –
4 | CC[S+](=O)([O-])Nc1ccc2c(c1)/C(=C(/Nc1ccc(CN3CCCCC3)cc1)c1ccccc1)C(=O)N2 | 106% | 114% | 115% | 109% | 111% | 12.9% | 11.6% | 18.7% | 27.1% | 54.3% | 32.2% | 127% | 116% | 120% | 119% | 114% | 14.3% | 17.4% | 30.7% | 35.3% | 51.4% | 21.4% | 123% | 117% | 121% | 118% | 121% | 22.6% | 25.8% | 47.3% | 52% | 59.8% | 18.8%
5 | C[C@H](CCC(=O)O)[C@H]1CCC2C3C[C@H](O)[C@@H]4C[C@H](O)CC[C@]4(C)C3CC[C@@]21C (stereo partly drawn) | 106% | 113% | 101% | 112% | 126% | 115% | 97.3% | 93.7% | 107% | 96.8% | 108% | 105% | 126% | 120% | 114% | 117% | 108% | 105% | 105% | 102% | 104% | 105% | 98.7% | 108% | 103% | 103% | 108% | 97.5% | 96.9% | 98.9% | 105% | 90.4% | 94.9%
6 | c1ccc2c(Cc3c[nH]c4ccccc34)c[nH]c2c1 | 94.9% | 101% | 93.7% | 95.8% | 97% | 95.4% | 95.1% | 91.1% | 89.7% | 87.4% | 29.9% | 100% | 93.3% | 95% | 92.2% | 82.2% | 90.4% | 86.7% | 91.2% | 88.7% | 89.3% | 32.8% | 86% | 94.3% | 92.2% | 84.8% | 89.6% | 92% | 96.8% | 94% | 86.3% | 85.2% | 38%
7 | N#C/C(=C\c1ccc(O)c(O)c1)C(=O)NCc1ccccc1 | 101% | 96.5% | 103% | 106% | 104% | 106% | 103% | 100% | 102% | 68.5% | 47.4% | 105% | 106% | 101% | 101% | 103% | 94.3% | 103% | 97.6% | 87% | 68.2% | 36.7% | 95.2% | 96.1% | 99.5% | 97% | 98.7% | 88.3% | 93.1% | 94.7% | 80.3% | 67.7% | 41.5%
8 | COc1cc(Nc2c(C#N)cnc3cc(OCCCN4CCN(C)CC4)c(OC)cc23)c(Cl)cc1Cl | 112% | 112% | 110% | 110% | 117% | 120% | 120% | 97.6% | 42.4% | 4.36% | 4.46% | 103% | 123% | 112% | 115% | 121% | 122% | 122% | 109% | 54.2% | 6.74% | 5.61% | 111% | 110% | 126% | 128% | 124% | 127% | 129% | 105% | 64.5% | 7.05% | 5.93%
